According to US6492360B1, “Phthalazine derivatives phosphodiesterase 4 inhibitors” (Zambon Group S.p.A., priority 1998, dated 2002):
Structures can show the parent of a compound that is named as a salt.

What was measured:
Assay type in all cases: biochemical
PDE 4 = PDE 4 enzyme inhibition (SPA); conditions: PDE 4 purified from human PMNs; cAMP 1 μM
Protocol: a) Human Polymorphonuclear Leukocyte Isolation
The polymorphonuclear leukocytes (PMNs) were isolated from peripheral blood of healthy volunteers according to Boyum A. (Scand. J. Immunol., 1976, 5th suppl., 9). Briefly, the PMNs were purified by Ficoll-Paque gradient centrifugation followed by sedimentation on dextran and the erythrocyte contamination was eliminated by hypotonic lysis.
b) PDE 4 Enzyme Purification
The human PMNs were suspended in TRIS/HCl buffer (10 mM, pH 7.8) containing MgCl2 (5 mM), EGTA (4 mM), mercaptoethanol (5 mM), TRITON-X100 (1%), pepstatin A (1 μM), PMSF (100 μM) and leupeptin (1 μM), and homogenised by Polytron homogeniser. The homogenate was centrifuged at 25,000×g for 30 minutes at 4° C. and the PDE 4 enzyme was purified by ion exchange chromatography using the FPLC technique according to Schudt C. et al. (Naunyn-Schmidberg's Arch. Pharmacol., 1991, 334, 682). The supernatant was seeded on a UNO Q12 column (Bio-Rad) and the enzyme was eluted by sodium acetate linear gradient from 50 mM to 1M using a flow rate of 4.5 ml/minutes. The fractions containing enzymatic activity were pooled, dialysed against water and concentrated. The PDE 4 enzyme was stored at, −20° C. in the presence of ethylene glycol (30% v/v) until the use.
The enzyme activity was evaluated with a Scintillation Proximity Assay (SPA) kit (Amersham). The enzymatic reaction was performed in a final volume of 100 μl of TRIS/HCl buffer (50 mM, pH 7.5), MgCl2 (8.3 mM), EGTA (1.7 mM), cAMP (1 μM) and [^3H]cAMP (˜100.000 dpm) as tracer. The compounds of the invention, the reference ones or the vehicle were added at different concentrations. As reference compounds 6,7-dimethoxy-4-pyridin-4-yl-methyl)2H-phthalazin-1-one (reference 1) and 6,7-dimethoxy-4-(piperidin-4-yl-methyl)2H-phthalazin-1-one (reference 2) embraced by the general formula of the patent application EP-0 722 936 (in the name of Eisai) were used. The reaction was started by adding 1.5 μg protein and incubated for 40 minutes at 30° C. SPA beads (50 μl) containing 18 mM zinc sulphate were added to stop the reaction and after 20 minutes at room temperature the radioactivity was measured using a scintillation counter.
The IC50 value refers to the nanomolar concentration of the compound required to inhibit cyclic nucleotide hydrolysis by 50%, and it was calculated by non-linear regression analysis.

PDE 3 = biological target: T1, PDE 3 (Homo sapiens, UniProt Q14432); test: PDE 3 enzyme inhibition (SPA); conditions: 10^−6 M; PDE 3 from human platelets; cAMP
T1 construct: The fractions containing the enzymatic activities (PDE 3 or PDE 5) were pooled; from tissue; host or cells: human platelets from platelet rich plasma of healthy volunteers
T1 sequence (Q14432 whole entry): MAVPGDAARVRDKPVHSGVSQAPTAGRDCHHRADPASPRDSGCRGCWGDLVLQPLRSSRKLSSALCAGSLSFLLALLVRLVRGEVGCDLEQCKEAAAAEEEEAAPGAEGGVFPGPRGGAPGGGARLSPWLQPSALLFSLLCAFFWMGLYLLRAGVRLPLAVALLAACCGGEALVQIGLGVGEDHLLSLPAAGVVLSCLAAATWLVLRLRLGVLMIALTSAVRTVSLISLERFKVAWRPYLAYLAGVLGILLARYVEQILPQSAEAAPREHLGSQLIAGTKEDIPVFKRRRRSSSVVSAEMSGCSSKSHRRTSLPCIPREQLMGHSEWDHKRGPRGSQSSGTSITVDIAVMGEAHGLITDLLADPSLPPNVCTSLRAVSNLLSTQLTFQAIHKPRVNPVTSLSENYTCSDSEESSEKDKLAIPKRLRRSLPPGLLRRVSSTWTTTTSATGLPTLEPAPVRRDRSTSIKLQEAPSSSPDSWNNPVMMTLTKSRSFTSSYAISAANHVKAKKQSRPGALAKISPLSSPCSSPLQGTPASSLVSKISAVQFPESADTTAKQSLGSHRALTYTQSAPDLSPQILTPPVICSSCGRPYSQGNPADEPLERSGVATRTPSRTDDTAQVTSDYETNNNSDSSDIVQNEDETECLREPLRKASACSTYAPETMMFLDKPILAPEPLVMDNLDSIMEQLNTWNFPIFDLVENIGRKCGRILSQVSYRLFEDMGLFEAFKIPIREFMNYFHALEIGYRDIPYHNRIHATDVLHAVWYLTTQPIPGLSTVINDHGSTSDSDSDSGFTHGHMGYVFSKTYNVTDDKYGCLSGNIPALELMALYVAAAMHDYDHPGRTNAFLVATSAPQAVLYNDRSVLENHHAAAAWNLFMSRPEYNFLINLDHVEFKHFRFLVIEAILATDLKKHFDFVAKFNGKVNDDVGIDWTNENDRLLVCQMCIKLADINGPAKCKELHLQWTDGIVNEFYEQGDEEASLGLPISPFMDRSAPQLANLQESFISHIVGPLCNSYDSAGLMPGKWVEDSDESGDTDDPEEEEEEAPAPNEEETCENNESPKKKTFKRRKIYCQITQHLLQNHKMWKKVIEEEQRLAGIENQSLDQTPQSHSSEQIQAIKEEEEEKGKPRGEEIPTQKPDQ
Protocol: (§1) a) Human Platelet Preparation
(§2) Human platelets were prepared from platelet rich plasma (PRP) obtained from healthy volunteers. The PRP was centrifuiged at 2,200 rpm for 15 minutes at 4° C. and the pellet was suspended in lysis solution (15 ml; 155 mM NH4Cl, 10 mM KHCO3 and 0.1 mM Na2EDTA, pH=7.4) and incubated for 10 minutes on ice-bath to remove the erythrocyte contamination. After centrifugation at 1,400 rpm for 10 minutes at 4° C., platelets were suspended in 10 ml of […], 5 mM KCl, 1 mM MgSO4, 10 mM glucose, 10 mM HEPES (pH 7.4) and 0.05 U/ml of hirudin, and stored at −20° C. until homogenisation. Platelets were thawed and 50 ml of 20 mM TRIS (pH=6.5) containing 5 mM β-mercapto-ethanol, 2 mM EDTA, 50 mM sodium acetate and 50 μM PMSF (homogenisation buffer) were added. The platelet suspension was then homogenised by a Polytron homogeniser (Polytron PT 1200) for 20 seconds. The homogenate was centrifuged at 14,500 rpm for 20 minutes at 4° C., and the supernatant was applied to an UNO Q12 column (Bio-Rad). The PDE 3 and PDE 5 were eluted by sodium acetate linear gradient from 0.05M to 1M using a flow rate of 4.5 ml/minutes. The fractions containing the enzymatic activities (PDE 3 or PDE 5) were pooled, dialysed against water and concentrated 10 times by ultrafiltration. The PDE 3 and PDE 5 fractions were stored at −20° C. in the presence of ethylene glycol (30% v/v) until use.
(§3) b) PDE 3 and PDE 5 Activity Assay
(§4) The enzyme activity was evaluated with a Scintillation Proximity Assay (SPA) kit (Amersham). The enzymatic reaction was performed in a final volume of 100 μl of TRIS/HCl buffer (50 mM, pH7.5), MgCl2 (8.3 mM), EGTA (1.7 mM), cAMP (for PDE 3 assay) or cGMP (for PDE 5 assay) (1 μM), [^3H]cAMP or [^3H]cGMP (10 μl ), and 10 μl of the compounds of the invention or vehicle. The reaction was started by adding the enzyme (1.0 μg) and incubated for 40 minutes at 30° C. SPA beads (50 μl) containing 18 mM zinc sulphate were added to stop the reaction and after 20 minutes at room temperature the radioacticity was measured using a scintillation counter.
(§5) The compounds were tested at 10^−6M and the results are expressed as percent of inhibition.

PDE 5 = biological target: T2, PDE 5 (Homo sapiens, UniProt O76074); test: PDE 5 enzyme inhibition (SPA); conditions: 10^−6 M; PDE 5 from human platelets; cGMP
T2 construct: The fractions containing the enzymatic activities (PDE 3 or PDE 5) were pooled; from tissue; host or cells: human platelets from platelet rich plasma of healthy volunteers
Protocol: as §1, §2, §3, §4, §5

| IC50 (PDE 4) [nM] | inhibition at 1 µM (PDE 3) [%] | inhibition at 1 µM (PDE 5) [%] | Compound |
| --- | --- | --- | --- |
| 48 ± 12 | 15 | 9 | COc1ccc2c(Cc3c(Cl)cncc3Cl)nnc(C#Cc3ccccc3)c2c1 [Compound 27, 1-(3,5-Dichloro-pyridin-4-ylmethyl)-6-methoxy-4-phenylethynyl-phthalazine] |
| 312 ± 48 | – | – | FC(F)Oc1ccc2c(Cc3c(Cl)cncc3Cl)nnc(N3CCOCC3)c2c1 [Compound 55, 1-(3,5-Dichloro-pyridin-4-ylmethyl)-6-difluoromethoxy-4-morpholin-4-yl-phthalazine] |
| 36 ± 9 | – | – | COc1ccc2c(Cc3c(Cl)cncc3Cl)nn(S(C)(=O)=O)c(=O)c2c1 [Compound 24, 4-(3,5-Dichloro-pyridin-4-methyl)-2-methanesulfonyl-7-methoxy-2H-phthalazin-1-one] |
| 19 ± 3 | – | – | COc1ccc2c(Cc3c(Cl)cncc3Cl)nncc2c1C=CCCCc1ccccc1 [Compound 33, 1-(3,5-Dichloro-pyridin-4-ylmethyl)-6-methoxy-5-(5-phenyl-pent-1-enyl)phthalazine] |
| 10 ± 2 | – | – | COc1ccc2c(Cc3c(Cl)cncc3Cl)nncc2c1C#CCCCc1ccccc1 [Compound 32, 1-(3,5-Dichloro-pyridin-4-ylmethyl)-6-methoxy-5-(5-phenyl-pent-1-ynyl)-phthalazine] |
| 14 ± 2 | – | 0 | COc1ccc2c(Cc3c(Cl)cncc3Cl)nnc(-c3nccs3)c2c1 [Compound 26, 1-(3,5-Dichloro-pyridin-4-ylmethyl)-6-methoxy-4-thiazol-2-yl-phthalazine] |
| 7.1 ± 0.5 | – | – | COc1ccc2c(Cc3c(Cl)cncc3Cl)nncc2c1C#CCN(C)Cc1ccccc1 [Compound 35, Benzyl-{3-[1-(3,5-dichloro-pyridin-4-ylmethyl)-6-methoxy-phthalazin-5-yl]-prop-2-ynyl}-methyl-amine dihydrochloride] |
| 93 ± 29 | -2 | 1 | C#Cc1nnc(Cc2c(Cl)cncc2Cl)c2ccc(OC)cc12 [Compound 60, 1-(3,5-Dichloro-pyridin-4-ylmethyl)-4-ethynyl-6-methoxy-phthalazine] |
| 96.4 ± 7.3 | – | – | COc1ccc2c(Cc3c(Cl)cncc3Cl)nncc2c1C#CCCCN1CCOCC1 [Compound 36, 1-(3,5-Dichloro-pyridin-4-ylmethyl)-6-methoxy-5-(5-morpholin-4-yl-pent-1-ynyl)-phthalazine dihydrochloride] |
| 209 ± 26 | 19 | 21 | COc1ccc2c(Cc3c(Cl)cncc3Cl)nn(CCCCCc3ccccc3)c(=O)c2c1 [Compound 23, 4-(3,5-Dichloro-pyridin-4-ylmethyl)-7-methoxy-2-(5-phenyl-pentyl)-2H-phthalazin-1-one] |
| 61 ± 2.4 | – | – | COc1ccc2c(Cc3c(Cl)cncc3Cl)nncc2c1C#CCO [Compound 37, 3-[1-(3,5-Dichloro-pyridin-4-ylmethyl)-6-methoxy-phthalazin-5-yl]-prop-2-yn-1-ol] |
| – | 2 | 33 | FC(F)Oc1ccc2c(Cc3c(Cl)cncc3Cl)nnc(-n3cncn3)c2c1 [Compound 54, 1-(3,5-Dichloro-pyridin-4-ylmethyl)-6-difluoromethoxy-4-[1,2,4]triazol-1-yl-phthalazine] |

The remaining lines, values behind:

| Compound | IC50 (PDE 4) [nM] | inhibition at 1 µM (PDE 3) [%] | inhibition at 1 µM (PDE 5) [%] |
| --- | --- | --- | --- |
| CCn1nc(Cc2c(Cl)cncc2Cl)c2ccc(OC)cc2c1=O [Compound 20, 4-(3,5-Dichloro-pyridin-4-ylmethyl)-2-ethyl-7-methoxy-2H-phthalazin-1-one] | 158 ± 34 | 5 | 11 |
| CNC(=O)N1Cc2cc(OC)ccc2C(Cc2c(Cl)cncc2Cl)=N1 [Compound 17, 4-(3,5-Dichloro-pyridin-4-ylmethyl)-7-methoxy-1H-phthalazine-2-carboxylic acid methyl-amide] | 131 ± 24 | 12 | 21 |
| COc1ccc2c(c1)CN(C(N)=O)N=C2Cc1c(Cl)cncc1Cl [Compound 9, 4-(3,5-Dichloro-pyridin-4-ylmethyl)-7-methoxy-1H-phthalazine-2-carboxylic acid amide] | 36 ± 4 | – | – |
| COc1ccc2c(Cc3c(Cl)cncc3Cl)nn(CCc3ccccc3)c(=O)c2c1 [Compound 22, 4-(3,5-Dichloro-pyridin-4-ylmethyl)-7-methoxy-2-phenethyl-2H-phthalazin-1-one] | 225 ± 35 | 20 | 8 |
| COc1ccc2c(c1)CN(C(=O)Cc1ccccc1)N=C2Cc1c(Cl)cncc1Cl [Compound 13, 1-[4-(3,5-Dichloro-pyridin-4-ylmethyl)-7-methoxy-1H-phthalazin-2-yl]-2-phenyl-ethanone] | 12 ± 2 | – | – |
| COc1ccc2c(c1)CN(S(C)(=O)=O)N=C2Cc1c(Cl)cncc1Cl [Compound 15, 4-(3,5-Dichloro-pyridin-4-ylmethyl)-2-methanesulfonyl-7-methoxy-1,2-dihydro-phthalazine] | 21 ± 4 | 15 | 0 |
| COc1ccc2c(c1)CN(C(=O)c1ccccc1)N=C2Cc1c(Cl)cncc1Cl [Compound 12, [4-(3,5-Dichloro-pyridin-4-ylmethyl)-7-methoxy-1H-phthalazin-2-yl]-phenyl-methanone] | 30 ± 8 | – | – |
| CCC(=O)N1Cc2cc(OC)ccc2C(Cc2c(Cl)cncc2Cl)=N1 [Compound 10, 1-[4-(3,5-Dichloro-pyridin-4-ylmethyl)-7-methoxy-1H-phthalazin-2-yl]-propan-1-one] | 28 ± 4 | – | – |
| COC(=O)N1Cc2cc(OC)ccc2C(Cc2c(Cl)cncc2Cl)=N1 [Compound 16, 4-(3,5-Dichloro-pyridin-4-ylmethyl)-7-methoxy-1H-phthalazine-2-carboxylic acid methyl ester] | 72 ± 16 | – | – |
| COc1ccc2c(c1)CN(C(=O)C(C)C)N=C2Cc1c(Cl)cncc1Cl [Compound 11, 1-[4-(3,5-Dichloro-pyridin-4-ylmethyl)-7-methoxy-1H-phthalazin-2-yl]-2-methyl-propan-1-one] | 26 ± 3 | 17 | 10 |
